{
  "source": "ChEMBL document CHEMBL4359904",
  "about": "“Structural tuning of acridones for developing anticancer agents targeting dihydrofolate reductase” (Bioorg Med Chem Lett, 2019)",
  "key": {"CCRF-CEM": {"test_system": "CCRF-CEM", "assay": "Growth inhibition of human CCRF-CEM cells incubated for 48 hrs by sulforhodamine B assay", "format": "functional"}, "K562 [1]": {"test_system": "K562", "assay": "Growth inhibition of human K562 cells incubated for 48 hrs by sulforhodamine B assay", "format": "functional", "settings": "K562, 48 h"}, "A549": {"test_system": "A549", "assay": "Growth inhibition of human A549/ATCC cells incubated for 48 hrs by sulforhodamine B assay", "format": "functional", "settings": "A549, 48 h"}, "NCI-H23": {"test_system": "NCI-H23", "assay": "Growth inhibition of human NCI-H23 cells incubated for 48 hrs by sulforhodamine B assay", "format": "functional", "settings": "NCI-H23, 48 h"}, "NCI-H522": {"test_system": "NCI-H522", "assay": "Growth inhibition of human NCI-H522 cells incubated for 48 hrs by sulforhodamine B assay", "format": "functional", "settings": "NCI-H522, 48 h"}, "HCC 2998": {"test_system": "HCC 2998", "assay": "Growth inhibition of human HCC2998 cells incubated for 48 hrs by sulforhodamine B assay", "format": "functional", "settings": "HCC 2998, 48 h"}, "KM12": {"test_system": "KM12", "assay": "Growth inhibition of human KM12 cells incubated for 48 hrs by sulforhodamine B assay", "format": "functional", "settings": "KM12, 48 h"}, "SNB-75": {"test_system": "SNB-75", "assay": "Growth inhibition of human SNB75 cells incubated for 48 hrs by sulforhodamine B assay", "format": "functional", "settings": "SNB-75, 48 h"}, "UACC-257": {"test_system": "UACC-257", "assay": "Growth inhibition of human UACC257 cells incubated for 48 hrs by sulforhodamine B assay", "format": "functional", "settings": "UACC-257, 48 h"}, "UACC-62": {"test_system": "UACC-62", "assay": "Growth inhibition of human UACC62 cells incubated for 48 hrs by sulforhodamine B assay", "format": "functional", "settings": "UACC-62, 48 h"}, "IGROV-1": {"test_system": "IGROV-1", "assay": "Growth inhibition of human IGROV1 cells incubated for 48 hrs by sulforhodamine B assay", "format": "functional", "settings": "IGROV-1, 48 h"}, "OVCAR-4": {"test_system": "OVCAR-4", "assay": "Growth inhibition of human OVCAR4 cells incubated for 48 hrs by sulforhodamine B assay", "format": "functional", "settings": "OVCAR-4, 48 h"}, "OVCAR-8": {"test_system": "OVCAR-8", "assay": "Growth inhibition of human OVCAR8 cells incubated for 48 hrs by sulforhodamine B assay", "format": "functional", "settings": "OVCAR-8, 48 h"}, "SK-OV-3": {"test_system": "SK-OV-3", "assay": "Growth inhibition of human SKOV3 cells incubated for 48 hrs by sulforhodamine B assay", "format": "functional", "settings": "SK-OV-3, 48 h"}, "UO-31": {"test_system": "UO-31", "assay": "Growth inhibition of human UO31 cells incubated for 48 hrs by sulforhodamine B assay", "format": "functional", "settings": "UO-31, 48 h"}, "BT-549": {"test_system": "BT-549", "assay": "Growth inhibition of human BT549 cells incubated for 48 hrs by sulforhodamine B assay", "format": "functional", "settings": "BT-549, 48 h"}, "T47D": {"test_system": "T47D", "assay": "Growth inhibition of human T47D cells incubated for 48 hrs by sulforhodamine B assay", "format": "functional"}, "K562 [2]": {"test_system": "K562", "assay": "Growth inhibition of human K562 cells at 10^-5 M incubated for 48 hrs by sulforhodamine B assay relative to control", "format": "functional", "settings": "K562, 48 h, read-out: GI"}, "RPMI-8226": {"test_system": "RPMI-8226", "assay": "Growth inhibition of human RPMI8226 cells at 10^-5 M incubated for 48 hrs by sulforhodamine B assay relative to control", "format": "functional", "settings": "RPMI-8226, 48 h, read-out: GI"}, "[3]": {"test_system": "Panel NCI-60 (60 carcinoma cell lines)", "assay": "Growth inhibition of human NCI60 cells at incubated for 48 hrs by sulforhodamine B assay", "format": "functional"}, "C6 [4]": {"test_system": "C6", "assay": "Antiproliferative activity against rat C6 cells assessed as decrease in cell viability measured after 48 hrs by MTT assay", "format": "functional, cell-based"}, "Dihydrofolate reductase": {"target": "T1, Dihydrofolate reductase (Homo sapiens, UniProt P00374)", "T1 sequence (P00374 whole entry)": "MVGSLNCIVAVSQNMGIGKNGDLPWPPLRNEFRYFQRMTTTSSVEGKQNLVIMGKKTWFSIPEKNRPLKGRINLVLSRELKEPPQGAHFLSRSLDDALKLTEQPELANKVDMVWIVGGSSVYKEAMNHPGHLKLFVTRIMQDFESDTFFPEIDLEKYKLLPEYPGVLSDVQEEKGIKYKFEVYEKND", "assay": "Inhibition of human dihydrofolate reductase assessed as inhibition constant by UV-Vis spectra based Benesi Hilebrand equation analysis"}, "C6 [5]": {"test_system": "C6", "assay": "Induction of morphological changes in rat C6 cells assessed as cellular senescence by measuring cell rounding with distorted morphology after 24 hrs by inverted microscopy analysis", "format": "functional, cell-based"}, "[6]": {"settings": "read-out: LC50 (the source's name)"}, "[7]": {"settings": "read-out: pLC50 (the source's name) (converted)"}},
  "note": "The source made the active and inactive calls. No cut-off for these calls is given here.",
  "data": [
    {"smiles": "O=c1c2ccccc2n(CC2CO2)c2ccccc12", "note": "(racemic)", "values": [
      {"measurement": "GI50", "setting": "CCRF-CEM; read-out: GI50", "value": 0.07, "unit": "µM"},
      {"measurement": "CC50", "setting": "CCRF-CEM; [6]", "value": "> 100", "unit": "µM"},
      {"measurement": "GI50", "setting": "CCRF-CEM; read-out: pGI50 (converted)", "value": 0.0769, "unit": "µM"},
      {"measurement": "CC50", "setting": "CCRF-CEM; [7]", "value": "> 100", "unit": "µM"},
      {"measurement": "GI50", "setting": "K562 [1]", "value": 0.214, "unit": "µM"},
      {"measurement": "CC50", "setting": "K562 [1]; [7]", "value": "> 100", "unit": "µM"},
      {"measurement": "TGI", "setting": "K562 [1]; read-out: pTGI", "value": "> 100", "unit": "µM"},
      {"measurement": "GI50", "setting": "A549", "value": 0.479, "unit": "µM"},
      {"measurement": "CC50", "setting": "A549; [7]", "value": "> 100", "unit": "µM"},
      {"measurement": "TGI", "setting": "A549; read-out: pTGI (converted)", "value": 3.8, "unit": "µM"},
      {"measurement": "GI50", "setting": "NCI-H23", "value": 0.295, "unit": "µM"},
      {"measurement": "CC50", "setting": "NCI-H23; [7]", "value": 57.5, "unit": "µM"},
      {"measurement": "TGI", "setting": "NCI-H23; read-out: pTGI (converted)", "value": 1.29, "unit": "µM"},
      {"measurement": "GI50", "setting": "NCI-H522", "value": 0.372, "unit": "µM"},
      {"measurement": "CC50", "setting": "NCI-H522; [7]", "value": 19.5, "unit": "µM"},
      {"measurement": "TGI", "setting": "NCI-H522; read-out: pTGI (converted)", "value": 1.32, "unit": "µM"},
      {"measurement": "GI50", "setting": "HCC 2998", "value": 0.275, "unit": "µM"},
      {"measurement": "CC50", "setting": "HCC 2998; [7]", "value": 10, "unit": "µM"},
      {"measurement": "TGI", "setting": "HCC 2998; read-out: pTGI (converted)", "value": 1.02, "unit": "µM"},
      {"measurement": "GI50", "setting": "KM12", "value": 0.269, "unit": "µM"},
      {"measurement": "CC50", "setting": "KM12; [7]", "value": 7.76, "unit": "µM"},
      {"measurement": "TGI", "setting": "KM12; read-out: pTGI (converted)", "value": 0.977, "unit": "µM"},
      {"measurement": "GI50", "setting": "SNB-75", "value": 0.269, "unit": "µM"},
      {"measurement": "CC50", "setting": "SNB-75; [7]", "value": 6.31, "unit": "µM"},
      {"measurement": "TGI", "setting": "SNB-75; read-out: pTGI (converted)", "value": 1.86, "unit": "µM"},
      {"measurement": "GI50", "setting": "UACC-257", "value": 0.457, "unit": "µM"},
      {"measurement": "CC50", "setting": "UACC-257; [7]", "value": "> 100", "unit": "µM"},
      {"measurement": "TGI", "setting": "UACC-257; read-out: pTGI (converted)", "value": 2.82, "unit": "µM"},
      {"measurement": "GI50", "setting": "UACC-62", "value": 0.234, "unit": "µM"},
      {"measurement": "CC50", "setting": "UACC-62; [7]", "value": 2.4, "unit": "µM"},
      {"measurement": "TGI", "setting": "UACC-62; read-out: pTGI (converted)", "value": 0.603, "unit": "µM"},
      {"measurement": "GI50", "setting": "IGROV-1", "value": 0.331, "unit": "µM"},
      {"measurement": "CC50", "setting": "IGROV-1; [7]", "value": 67.6, "unit": "µM"},
      {"measurement": "TGI", "setting": "IGROV-1; read-out: pTGI (converted)", "value": 2.57, "unit": "µM"},
      {"measurement": "GI50", "setting": "OVCAR-4", "value": 0.813, "unit": "µM"},
      {"measurement": "CC50", "setting": "OVCAR-4; [7]", "value": "> 100", "unit": "µM"},
      {"measurement": "TGI", "setting": "OVCAR-4; read-out: pTGI (converted)", "value": 3.98, "unit": "µM"},
      {"measurement": "GI50", "setting": "OVCAR-8", "value": 0.148, "unit": "µM"},
      {"measurement": "CC50", "setting": "OVCAR-8; [7]", "value": "> 100", "unit": "µM"},
      {"measurement": "TGI", "setting": "OVCAR-8; read-out: pTGI (converted)", "value": 1.32, "unit": "µM"},
      {"measurement": "GI50", "setting": "SK-OV-3", "value": 1.41, "unit": "µM"},
      {"measurement": "CC50", "setting": "SK-OV-3; [7]", "value": "> 100", "unit": "µM"},
      {"measurement": "GI50", "setting": "UO-31", "value": 0.178, "unit": "µM"},
      {"measurement": "TGI", "setting": "UO-31; read-out: pTGI (converted)", "value": 0.407, "unit": "µM"},
      {"measurement": "GI50", "setting": "BT-549", "value": 0.339, "unit": "µM"},
      {"measurement": "CC50", "setting": "BT-549; [7]", "value": 66.1, "unit": "µM"},
      {"measurement": "TGI", "setting": "BT-549; read-out: pTGI (converted)", "value": 3.16, "unit": "µM"},
      {"measurement": "GI50", "setting": "T47D", "value": 0.891, "unit": "µM"},
      {"measurement": "CC50", "setting": "T47D; [7]", "value": "> 100", "unit": "µM"},
      {"measurement": "TGI", "setting": "T47D; read-out: pTGI (converted)", "value": 5.5, "unit": "µM"},
      {"measurement": "inhibition of growth at 10 µM", "setting": "K562 [2]", "value": 92, "unit": "%"},
      {"measurement": "inhibition of growth at 10 µM", "setting": "RPMI-8226", "value": 100, "unit": "%"},
      {"measurement": "GI50", "setting": "[3]", "value": 1.6, "unit": "µM"},
      {"measurement": "TGI", "setting": "[3]", "value": 5.6, "unit": "µM"},
      {"measurement": "CC50", "setting": "[3]; [6]", "value": 44.4, "unit": "µM"},
      {"measurement": "inhibition", "setting": "C6 [4]", "value": "Dose-dependent effect"},
      {"measurement": "IC50", "setting": "C6 [4]; C6, 48 h", "value": "0.25 to 1.5", "unit": "µM"},
      {"measurement": "Ki", "setting": "Dihydrofolate reductase", "value": 1.6, "unit": "µM"},
      {"measurement": "Activity", "setting": "C6 [5]", "value": "Active"}
    ]}
  ]
}
